This test deals with T1, β-xylosidase (SSO3032) (Saccharolobus solfataricus, UniProt Q97UI4).
T1 construct: full gene cloned in pSVAmalFX-Nt6H (His6 tag)
The experiment in a line: colorimetric pNP release at […] nm. It counts as biochemical. The following applies: 1 mM pNPX, 50 mM sodium acetate pH 6.0, 90 °C, 10 min.

T1 sequence (Q97UI4 entry or part of it): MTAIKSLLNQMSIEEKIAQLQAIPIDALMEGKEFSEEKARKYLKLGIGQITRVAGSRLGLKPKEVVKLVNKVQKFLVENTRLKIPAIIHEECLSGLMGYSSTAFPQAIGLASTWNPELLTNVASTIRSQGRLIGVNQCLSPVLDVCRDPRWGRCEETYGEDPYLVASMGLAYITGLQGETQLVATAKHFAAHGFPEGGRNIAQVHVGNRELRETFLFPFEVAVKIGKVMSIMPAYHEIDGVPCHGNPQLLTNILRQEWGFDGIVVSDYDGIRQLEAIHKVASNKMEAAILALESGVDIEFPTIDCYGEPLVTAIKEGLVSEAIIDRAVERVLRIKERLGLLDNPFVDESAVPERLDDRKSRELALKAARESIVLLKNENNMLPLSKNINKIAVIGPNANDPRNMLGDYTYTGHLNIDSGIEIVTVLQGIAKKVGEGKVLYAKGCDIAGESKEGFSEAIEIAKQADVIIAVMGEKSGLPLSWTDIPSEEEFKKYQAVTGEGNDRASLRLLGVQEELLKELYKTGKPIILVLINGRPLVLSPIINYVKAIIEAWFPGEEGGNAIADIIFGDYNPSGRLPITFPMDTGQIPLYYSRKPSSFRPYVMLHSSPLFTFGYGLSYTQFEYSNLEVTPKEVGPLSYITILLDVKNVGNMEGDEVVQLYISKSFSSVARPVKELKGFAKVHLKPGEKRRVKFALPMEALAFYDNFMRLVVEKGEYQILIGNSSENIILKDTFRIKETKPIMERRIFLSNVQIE

On to `O=[N+]([O-])c1ccc(O[C@@H]2OC[C@@H](O)[C@H](O)[C@H]2O)cc1` [pNPX], for which the “colorimetric pNP release at 420 nm” value was “performed with 4-nitrophenol-β-D-xylopyranoside (pNPX) as a substrate”.

These data come from PMC9628888, “Engineering of Sulfolobus acidocaldarius for Hemicellulosic Biomass Utilization” (Journal of Microbiology and Biotechnology, 2022).
